# From ChEMBL document CHEMBL1201862, “PubChem BioAssay data set” (2004)
# Calls of active or inactive are those of the source.
# Key:
# [1] = viability of uninfected HEp-2 cells – cell-based, HTS, cytotoxicity control for RSV inhibitor project, dose response (AID 2410); assay type: functional; conditions: human respiratory syncytial virus
# [2] = target: T1, Rac GTPase-activating protein 1 (Homo sapiens, UniProt Q9H0H5); assay: blockers of MgcRacGAP-driven Rac1 GTP hydrolysis – biochemical, ADP Hunter fluorescence, primary and confirmatory, confirmation (AID 624330); assay type: functional
# T1 sequence (Q9H0H5 whole entry): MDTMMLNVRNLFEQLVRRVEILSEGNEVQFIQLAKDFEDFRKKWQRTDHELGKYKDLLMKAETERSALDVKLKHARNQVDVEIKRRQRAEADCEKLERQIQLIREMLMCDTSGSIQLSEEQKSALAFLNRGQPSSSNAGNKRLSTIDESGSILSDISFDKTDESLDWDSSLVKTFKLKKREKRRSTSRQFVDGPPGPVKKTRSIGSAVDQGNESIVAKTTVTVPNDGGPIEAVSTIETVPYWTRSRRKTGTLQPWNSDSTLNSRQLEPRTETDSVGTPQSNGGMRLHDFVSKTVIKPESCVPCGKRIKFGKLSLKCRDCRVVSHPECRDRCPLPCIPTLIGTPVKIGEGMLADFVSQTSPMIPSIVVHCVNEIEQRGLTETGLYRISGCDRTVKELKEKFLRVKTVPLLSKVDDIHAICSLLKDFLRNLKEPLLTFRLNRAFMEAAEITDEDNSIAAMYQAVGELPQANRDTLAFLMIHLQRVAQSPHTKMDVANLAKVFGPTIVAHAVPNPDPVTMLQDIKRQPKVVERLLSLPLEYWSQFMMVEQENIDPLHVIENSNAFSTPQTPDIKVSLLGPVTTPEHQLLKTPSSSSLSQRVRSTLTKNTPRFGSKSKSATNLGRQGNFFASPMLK
# [3] = non-specific 3'UTR reporter inhibition in Clone20-Shn3RL – cell-based, Renilla luciferase, cherry-picked, counter-screen for Shn3 inhibitor project, dose response (AID 624133); assay type: functional
# Large T antigen = Large T antigen (Simian virus 40, UniProt P03070); assay type: functional, Betapolyomavirus macacae;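 further: Confirmatory-stage PubChem screen for compounds that inhibit SV40 T antigen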
# [4] = target: T2, Voltage-gated N-type calcium channel alpha-1B subunit/Amyloid beta A4 precursor protein-binding family A member 1 (Homo sapiens, UniProt Q00975+Q02410); assay type: protein assay
# [5] = target: T2, Voltage-gated N-type calcium channel alpha-1B subunit/Amyloid beta A4 precursor protein-binding family A member 1; assay type: protein assay; remark: listed apart in the source
# Genome polyprotein = Genome polyprotein (dengue virus type 2, UniProt P29990); assay: flavivirus cap methylation enzyme inhibition – biochemical, confirmation dose response, primary screen (AID 588689); assay type: functional
# [6] = viability loss in HeLa cells – cytotoxicity control for MgcRacGAP inhibitor project, dose response (AID 624300); assay type: functional
# [7] = target: Neurotensin receptor type 1 (Homo sapiens, UniProt P30989); assay type: functional;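 further: Image-based confirmatory dose-response assay measuring agonist activity at NTR1; NTR1-expressing U2OS osteosarcoma cells imaged for beta-arrestin GFP spot formation; agonist potency where compounds increase beta-arrestin recruitment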
# INS1 = assay: INS-1E survival protection against cytokine death – cell-based, luminescence, retest, dose response (AID 449756); assay type: functional; conditions: Rattus norvegicus;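 further: cell death triggered by IL-1 beta plus TNF-alpha plus IFN-gamma mixture; protective hits raise ATP signal compared with cytokine alone wells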
# [8] = target: DNA damage-inducible transcript 3 protein (Mus musculus, UniProt P35639); assay type: functional, Cricetulus griseus
# [9] = reduction of Shn3 3'UTR-driven luciferase in osteoblasts – cell-based, Clone20 osteoblasts, firefly luciferase, cherry-picked, dose response (AID 624132); assay type: functional;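 further: firefly luciferase luminescence from reporter carrying the Shn3 3'UTR in osteoblasts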
# [10] = target: Tyrosine-protein phosphatase non-receptor type 7 (Homo sapiens, UniProt P35236); assay type: functional
# [11] = target: T3, Tyrosine-protein phosphatase non-receptor type 22 (Homo sapiens, UniProt Q9Y2R2); assay type: functional
# [12] = target: T3, Tyrosine-protein phosphatase non-receptor type 22; assay type: functional; remark: listed apart in the source
# T-cell = assay: loss of vesicle association with mouse CD8+ T cells – mouse 2C CD8+ T cells, flow cytometry, dose response (AID 485284); assay type: functional
# Integrin alpha-L = Integrin alpha-L (Mus musculus, UniProt P24063); assay: modulators of CD8 T cell-vesicle binding, dose response, powder samples, mouse 2C CD8+ cells (AID 504565); assay type: functional
# [13] = microbe, parasite or virus in culture; assay type: functional; conditions: Mycobacterium tuberculosis
# Troponin, cardiac muscle = Troponin, cardiac muscle (Homo sapiens, UniProt P19429+P45379+P63316); assay: Fluorescence-based biochemical high throughput dose response assay for activators of the calcium sensitivity of cardiac Regulated Thin Filaments (RTF). [Related pubchem assays (depositor defined):AID493008, AID493018, AID504382, AID504383]; assay type: protein-complex assay
# [14] = target: T4, Heat shock factor protein 1 (Mus musculus, UniProt P38532); assay: enhancement of HSF1-driven luciferase signal – cell-based, NIH3T3, luminescence, dose retest, confirmation (AID 435004); assay type: functional;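 further: stress induced by proteasome inhibitor MG132 added 30 min after compound; luciferase reporter driven by HSF1 response element in NIH3T3 cells; actives raise luminescence as potentiators of the MG132 stress response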
# T4 sequence (P38532 whole entry): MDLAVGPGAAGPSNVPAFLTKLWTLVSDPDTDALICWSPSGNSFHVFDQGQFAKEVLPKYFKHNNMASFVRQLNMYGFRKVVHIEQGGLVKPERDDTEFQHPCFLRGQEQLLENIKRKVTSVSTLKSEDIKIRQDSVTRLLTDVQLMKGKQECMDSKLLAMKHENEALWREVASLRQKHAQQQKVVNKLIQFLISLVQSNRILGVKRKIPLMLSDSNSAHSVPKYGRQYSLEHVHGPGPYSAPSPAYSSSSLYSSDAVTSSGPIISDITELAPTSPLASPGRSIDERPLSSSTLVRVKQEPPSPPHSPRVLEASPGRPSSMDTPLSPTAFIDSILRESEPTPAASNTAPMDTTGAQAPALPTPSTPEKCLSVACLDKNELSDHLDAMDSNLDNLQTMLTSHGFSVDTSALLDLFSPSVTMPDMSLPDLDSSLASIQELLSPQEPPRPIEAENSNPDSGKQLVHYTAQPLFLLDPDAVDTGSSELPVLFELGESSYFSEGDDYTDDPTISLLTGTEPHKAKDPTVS
# [15] = target: T5, Replicative DNA helicase DnaB (Mycobacterium tuberculosis, UniProt P9WMR3); assay: DnaB intein splicing inhibitors, dose response, biochemical, cell-free fluorescence (AID 449749); assay type: functional
# T5 sequence (P9WMR3 whole entry): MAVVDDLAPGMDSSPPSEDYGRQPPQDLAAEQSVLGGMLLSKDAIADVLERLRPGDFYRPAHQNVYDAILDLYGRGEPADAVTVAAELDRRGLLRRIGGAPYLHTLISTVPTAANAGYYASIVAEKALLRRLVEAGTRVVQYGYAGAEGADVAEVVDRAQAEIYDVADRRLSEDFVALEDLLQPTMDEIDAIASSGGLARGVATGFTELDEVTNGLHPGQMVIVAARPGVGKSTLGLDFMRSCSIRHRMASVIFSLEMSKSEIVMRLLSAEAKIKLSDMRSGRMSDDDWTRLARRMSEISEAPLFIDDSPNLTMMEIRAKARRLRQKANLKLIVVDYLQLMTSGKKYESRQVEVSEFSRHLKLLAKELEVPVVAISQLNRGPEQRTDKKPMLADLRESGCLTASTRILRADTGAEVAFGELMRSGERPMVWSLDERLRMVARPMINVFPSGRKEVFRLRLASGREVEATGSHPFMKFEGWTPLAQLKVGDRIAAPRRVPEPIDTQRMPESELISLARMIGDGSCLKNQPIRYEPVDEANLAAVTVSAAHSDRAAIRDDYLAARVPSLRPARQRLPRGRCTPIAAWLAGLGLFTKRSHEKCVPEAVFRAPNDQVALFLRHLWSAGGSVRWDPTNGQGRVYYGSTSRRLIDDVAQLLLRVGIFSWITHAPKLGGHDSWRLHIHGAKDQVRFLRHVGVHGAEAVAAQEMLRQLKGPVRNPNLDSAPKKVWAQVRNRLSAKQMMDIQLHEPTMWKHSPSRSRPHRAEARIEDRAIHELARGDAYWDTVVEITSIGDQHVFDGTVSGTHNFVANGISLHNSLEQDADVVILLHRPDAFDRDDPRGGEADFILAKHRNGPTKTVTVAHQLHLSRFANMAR
# Protein RecA = target: T6, Protein RecA (Mycobacterium tuberculosis, UniProt P9WHJ3); assay: Fluorescence Cell-Free Homogeneous Dose Retest to Identify Inhibitors of RecA-Intein Splicing Activity. [Related pubchem assays (depositor defined):AID2097, AID2223, AID489010, AID492950]; assay type: functional
# T6 sequence (P9WHJ3 whole entry): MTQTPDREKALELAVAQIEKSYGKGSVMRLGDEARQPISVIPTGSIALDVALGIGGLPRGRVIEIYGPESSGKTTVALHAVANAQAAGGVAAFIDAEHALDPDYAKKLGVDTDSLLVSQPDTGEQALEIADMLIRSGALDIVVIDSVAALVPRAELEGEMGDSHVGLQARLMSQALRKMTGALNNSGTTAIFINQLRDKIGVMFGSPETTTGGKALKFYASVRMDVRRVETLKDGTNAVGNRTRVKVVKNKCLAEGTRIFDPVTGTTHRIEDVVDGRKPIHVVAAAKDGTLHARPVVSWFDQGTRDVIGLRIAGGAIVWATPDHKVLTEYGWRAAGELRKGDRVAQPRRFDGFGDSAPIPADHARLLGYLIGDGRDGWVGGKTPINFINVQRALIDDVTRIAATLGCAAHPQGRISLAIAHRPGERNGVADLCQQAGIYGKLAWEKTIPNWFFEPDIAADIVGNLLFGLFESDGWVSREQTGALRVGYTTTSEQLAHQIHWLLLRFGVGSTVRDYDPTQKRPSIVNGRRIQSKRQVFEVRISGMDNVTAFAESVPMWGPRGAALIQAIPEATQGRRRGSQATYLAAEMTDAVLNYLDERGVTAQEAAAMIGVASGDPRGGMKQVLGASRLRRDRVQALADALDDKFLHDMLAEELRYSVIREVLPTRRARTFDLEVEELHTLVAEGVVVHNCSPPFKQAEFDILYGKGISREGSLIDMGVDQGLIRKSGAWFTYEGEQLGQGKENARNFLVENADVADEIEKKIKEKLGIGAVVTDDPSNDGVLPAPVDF
# [16] = Intein inhibitors as potential Tuberculosis drugs, a cytotoxicity screen. [Related pubchem assays (depositor defined):AID2221, AID2223, AID434968, AID435010, AID449749, AID449750, AID489010]; assay type: functional
# [17] = viability of HCT116 lacking mutant beta-catenin – cell-based, human colon tumor, dose response (AID 1045); assay type: functional;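 further: HCT116 colon tumor cells with beta catenin knocked out; cells exposed to compound for 60 hours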
# [18] = viability of PTEN-deleted HCT116 cells – cell-based, HCT116 PTEN knockout, dose response (AID 1047); assay type: functional;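 further: HCT116 colon tumor cells with PTEN knocked out; cells exposed to compound for 60 hours before readout; potency for loss of cell viability measured by luminescence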
# [19] = Vero E6 cell cytotoxicity, dose response, cytotoxicity control for non-replicating M. tuberculosis project, secondary assay (AID 492998); assay type: functional, VeroE6; conditions: Vero C1008
# [20] = target: T7, Kappa-type opioid receptor (Homo sapiens, UniProt P41145); assay: SAR analysis of small molecule antagonists of the kappa opioid receptor via a luminescent beta-arrestin assay - Set 4. [Related pubchem assays (depositor defined):AID1777, AID1778, AID1785, AID1786, AID1966, AID2133, AID2136, AID2285]; assay type: functional
# [21] = target: T7, Kappa-type opioid receptor; assay: SAR analysis of small molecule antagonists of the kappa opioid receptor via a luminescent beta-arrestin assay - Set 5. [Related pubchem assays (depositor defined):AID1778, AID1785]; assay type: functional
# Paired box protein Pax-8 = Paired box protein Pax-8 (Homo sapiens, UniProt Q06710); assay: PAX8 transcriptional activity inhibition in RMG-I – RMG-I cells, luciferase, cherry-pick, dose response (AID 687027); assay type: functional, cell-based;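 further: luciferase reporter driven by Pax8 target thyroperoxidase promoter measured by SteadyGlo luminescence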
# [22] = HEK-293T viability loss after treatment – luminescence, T-cell screen hits, cytotoxicity control for TCR NF-kB inhibitor project, dose response (AID 489026); assay type: functional, cell-based;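 further: cells exposed to compound about 14 hours before the viability readout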
structure (smiles),measurement,setting,value
Cc1ccc(-c2ccc(/C=C3\C(=O)ON=C3c3ccccc3)o2)c([N+](=O)[O-])c1,CC50,[1],9.29 µM (active)
same,IC50,[2],67.2 µM (active)
same,AC50,[3],15 µM (active)
same,IC50,Large T antigen,29.5 µM (active)
same,IC50,[4],> 50 µM (inactive)
same,IC50,[5],10.5 µM (active)
same,IC50,Genome polyprotein,11.1 µM (active)
same,CC50,[6],50 µM (active)
same,EC50,[7],7.89 µM (active)
same,AC50,INS1,7.23 µM (active)
same,Absolute IC50 (CHOP),[8],10 µM
same,AC50,[9],3.3 µM (active)
O=C(NCc1ccccc1)c1cncc(Br)c1,IC50,[10],> 79.4 µM (inactive)
same,IC50,[11],> 79.4 µM (inactive)
same,IC50,[12],> 79.4 µM (inactive)
CCOC(=O)c1ccc(S(=O)(=O)N2CCN(C3CCCC3)CC2)cc1,EC50,T-cell,22.2 µM (active)
same,EC50,Integrin alpha-L,11 µM (active)
CC(Oc1ccc(F)cc1)C(=O)Nc1sc2c(c1C(=O)NCc1cccnc1)CCCC2 (stereo unspecified),CC50,[13],> 40 µM (active)
same,EC50,"Troponin, cardiac muscle",> 71.5 µM (inactive)
Cc1cc(C)cc(Cn2ncc(Cl)c(Cl)c2=O)c1,EC50,[14],21.7 µM (active)
same,AC50,[15],2.12 µM (active)
same,EC50,Protein RecA,985 nM (active)
same,CC50,[16],22.5 µM (active)
same,EC50,[17],6.91 µM (active)
same,EC50,[18],8.8 µM (active)
O=C(CCS(=O)(=O)Cc1ccccc1)Nc1ncc([N+](=O)[O-])s1,CC50,[19],> 20 µM (active)
Cc1ccc(S(=O)(=O)NCc2ccc(C(=O)NCCN(Cc3ccccc3)CC(C)C)cc2)cc1,IC50,[20],> 20 µM (inactive)
same,IC50,[21],4.33 µM (active)
COc1ccc(C[C@H](N)C(=O)N[C@H]2[C@@H](O)[C@H](n3cnc4c(N(C)C)ncnc43)O[C@@H]2CO)cc1,AC50,Paired box protein Pax-8,546 nM (active)
same,CC50,[13],4.73 µM (active)
same,IC50,[22],> 80 µM (inactive)
